Results: PubChem BioAssay (NCI)
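How tested: cells in 96-well plates exposed to compound for 48 hours at five concentrations. TGI denotes the concentration required for complete inhibition of growth.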

What was measured:
Experiment in all cases: NCI-60 cell line screen, 48 h
786-0 renal = tested on: 786-0 renal
A498 renal = tested on: A498 renal
A549 NSCLC = tested on: A549 NSCLC
ACHN renal = tested on: ACHN renal
CAKI-1 renal = tested on: CAKI-1 renal
CCRF-CEM leukemia = tested on: CCRF-CEM leukemia
COLO 205 colon = tested on: COLO 205 colon
DLD-1 colon = tested on: DLD-1 colon
DMS 114 small cell lung = tested on: DMS 114 small cell lung
DMS 273 small cell lung = tested on: DMS 273 small cell lung
EKVX NSCLC = tested on: EKVX NSCLC
HCC-2998 colon = tested on: HCC-2998 colon
HCT-116 colon = tested on: HCT-116 colon
HCT-15 colon = tested on: HCT-15 colon
HL-60(TB) leukemia = tested on: HL-60(TB) leukemia
HOP-18 NSCLC = tested on: HOP-18 NSCLC
HOP-62 NSCLC = tested on: HOP-62 NSCLC
HOP-92 NSCLC = tested on: HOP-92 NSCLC
HT29 colon = tested on: HT29 colon
IGROV1 ovarian = tested on: IGROV1 ovarian
K-562 leukemia = tested on: K-562 leukemia
KM12 colon = tested on: KM12 colon
KM20L2 colon = tested on: KM20L2 colon
LOX IMVI melanoma = tested on: LOX IMVI melanoma
LXFL 529 NSCLC = tested on: LXFL 529 NSCLC
M14 melanoma = tested on: M14 melanoma
M19-MEL melanoma = tested on: M19-MEL melanoma
MALME-3M melanoma = tested on: MALME-3M melanoma
MOLT-4 leukemia = tested on: MOLT-4 leukemia
NCI-H226 lung = tested on: NCI-H226 lung
NCI-H23 lung = tested on: NCI-H23 lung
NCI-H460 lung = tested on: NCI-H460 lung
NCI-H522 lung = tested on: NCI-H522 lung
OVCAR-3 ovarian = tested on: OVCAR-3 ovarian
OVCAR-4 ovarian = tested on: OVCAR-4 ovarian
OVCAR-5 ovarian = tested on: OVCAR-5 ovarian
OVCAR-8 ovarian = tested on: OVCAR-8 ovarian
RXF 393 renal = tested on: RXF 393 renal
RXF-631 renal = tested on: RXF-631 renal
SF-268 CNS = tested on: SF-268 CNS
SF-295 CNS = tested on: SF-295 CNS
SF-539 CNS = tested on: SF-539 CNS
SK-MEL-2 melanoma = tested on: SK-MEL-2 melanoma
SK-MEL-28 melanoma = tested on: SK-MEL-28 melanoma
SK-MEL-5 melanoma = tested on: SK-MEL-5 melanoma
SK-OV-3 ovarian = tested on: SK-OV-3 ovarian
SN12C renal = tested on: SN12C renal
SNB-19 CNS = tested on: SNB-19 CNS
SNB-75 CNS = tested on: SNB-75 CNS
SNB-78 CNS = tested on: SNB-78 CNS
SR leukemia = tested on: SR leukemia
SW-620 colon = tested on: SW-620 colon
TK-10 renal = tested on: TK-10 renal
U251 CNS = tested on: U251 CNS
UACC-257 melanoma = tested on: UACC-257 melanoma
UACC-62 melanoma = tested on: UACC-62 melanoma
UO-31 renal = tested on: UO-31 renal
XF 498 CNS = tested on: XF 498 CNS

Measured: TGI

COC(=O)/C(=N\NC(C)(C)C)C(C(=O)OC)C(=O)C(=O)Nc1cc(Cl)ccc1Cl (stereo not drawn)
> 100 µM: all assays above
